MIC data for four molecules are collected here from DBAASP.

Each structure is given as a SMILES string. Converted amounts (≈) assume the structure as drawn.

Holding throughout (assay): ≥ marks a high value that may be exact or a test limit, other limits are often not marked, values filed in µg/mL are converted to µM
Test [1] deals with Vibrio cholerae O1 Inaba.
In test [2] the test system is Listeria monocytogenes 10403s.
Test [3] has as its system Escherichia coli ATCC 25922.
In test [4] the test system is Staphylococcus aureus ATCC 25923.
Test [5] has as its system Pseudomonas aeruginosa ATCC 27853.
Test [6] concerns Salmonella enterica subsp. enterica serovar Typhimurium ATCC 13311.
The test system of test [7] is Enterococcus faecalis ATCC 29212.
Test [8] has as its system Bacillus cereus ATCC 11778.
The subject of test [9] is Staphylococcus epidermidis ATCC 12228.
The test system of test [10] is Escherichia coli O157:H7.
For test [11], the system named is Shigella sonnei ATCC 11060.
Test [12] relates to Acinetobacter baumannii.
Test [13] deals with Aeromonas salmonicida.
Test [14] concerns Salmonella enterica subsp. enterica serovar Typhimurium ATCC 14028s.
The subject of test [15] is Vibrio anguillarum.
For test [16], the system named is Pseudomonas aeruginosa Z61.
Test [17] relates to Salmonella enterica serovar typhimurium MS7953s.
The subject of test [18] is Staphylococcus epidermidis C621.
The subject of test [19] is Pseudomonas aeruginosa K799.
Test [20] concerns Acinetobacter baumannii ATCC 19606.
Test [21] relates to Streptococcus pneumoniae ATCC 700677.
The test system of test [22] is Staphylococcus aureus VRSA1.
For test [23], the system named is Staphylococcus aureus ATCC 29213.
In test [24] the test system is Enterococcus faecium ATCC 35667.
For test [25], the system named is Candida tropicalis ATCC 750.
Test [26] deals with Cryptococcus neoformans ATCC 208821.
Test [27] deals with Bacillus megaterium ATCC 13632.
Test [28] concerns Bacillus subtilis ATCC 6051.
Test [29] deals with Candida albicans ATCC 90028.
The test system of test [30] is Staphylococcus aureus ATCC 43300.
Test [31] relates to Klebsiella pneumoniae ATCC 700603.
Test [32] deals with Mannheimia haemolytica 82-25.
The test system of test [33] is Escherichia coli ATCC 12795.
Test [34] relates to Pseudomonas aeruginosa ATCC 27312.
Test [35] has as its system Serratia marcescens ATCC 14756.
In test [36] the test system is Candida krusei ATCC 6258.
Test [37] relates to Klebsiella pneumoniae ATCC 10031.

Take `CC[C@H](C)[C@H](NC(=O)[C@H](CCCN=C(N)N)NC(=O)[C@H](CCCCN)NC(=O)[C@H](C)NC(=O)[C@@H](NC(=O)[C@@H](N)CCCCN)[C@@H](C)CC)C(=O)N[C@@H](Cc1c[nH]c2ccccc12)C(=O)N[C@@H](CCCCN)C(=O)N[C@H](C(=O)N[C@@H](CC(C)C)C(=O)N[C@@H](CCCN=C(N)N)C(=O)N[C@@H](CCCN=C(N)N)C(=O)N[C@@H](CCCN=C(N)N)C(=O)N[C@@H](CC(C)C)C(=O)N[C@@H](Cc1ccccc1)C(N)=O)[C@@H](C)CC` [KIAKRIWKILRRRLF]: the MIC was 1.96 µM (≈ 3.91 µg/mL) in test [1]; 0.976 µM (≈ 1.95 µg/mL) in [2]; 7.82 µM (≈ 15.6 µg/mL) in test [3]; 3.91 µM (≈ 7.81 µg/mL) in test [4]; 3.91 µM (≈ 7.81 µg/mL) in test [5]; 0.976 µM (≈ 1.95 µg/mL) in [6]. Moreover, the MIC in test [7] was 15.6 µM (≈ 31.2 µg/mL); in [8], 1.96 µM (≈ 3.91 µg/mL); in test [9], 1.96 µM (≈ 3.91 µg/mL); in test [10], 7.82 µM (≈ 15.6 µg/mL); in [11] it was 1.96 µM (≈ 3.91 µg/mL); in [12], 1.96 µM (≈ 3.91 µg/mL).
Turning to `CC[C@H](C)[C@H](NC(=O)[C@@H](N)CO)C(=O)NCC(=O)N[C@@H](CO)C(=O)N[C@@H](C)C(=O)N[C@@H](Cc1ccccc1)C(=O)N[C@@H](CCCCN)C(=O)N[C@@H](CCCCN)C(=O)N[C@@H](C)C(=O)N[C@@H](C)C(=O)N[C@@H](Cc1cnc[nH]1)C(=O)N[C@H](C(=O)NCC(=O)N[C@@H](CCCCN)C(=O)N[C@@H](Cc1cnc[nH]1)C(=O)N[C@H](C(=O)NCC(=O)N[C@@H](CCCCN)C(=O)N[C@@H](C)C(=O)N[C@@H](C)C(=O)N[C@@H](CC(C)C)C(=O)N[C@H](C(=O)N[C@@H](Cc1cnc[nH]1)C(=O)N[C@@H](Cc1ccc(O)cc1)C(=O)N[C@@H](CC(C)C)C(=O)N[C@@H](CC(N)=O)C(=O)O)[C@@H](C)O)C(C)C)C(C)C` [SIGSAFKKAAHVGKHVGKAALTHYLN], the MIC stood at 2.96 µM (≈ 8 µg/mL) in test [13]; 23.7 µM (≈ 64 µg/mL) in test [14]; 23.7 µM (≈ 64 µg/mL) in test [15]; 23.7 µM (≈ 64 µg/mL) in test [16]; 0.739 µM (≈ 2 µg/mL) in test [17]; 23.7 µM (≈ 64 µg/mL) in test [18]. This molecule also gave an MIC in test [19] of 23.7 µM (≈ 64 µg/mL).
As to `CC[C@H](C)[C@H](N)C(=O)N[C@@H](Cc1ccccc1)C(=O)N[C@@H](Cc1c[nH]c2ccccc12)C(=O)N[C@@H](CC(C)C)C(=O)N[C@@H](Cc1ccccc1)C(=O)N[C@@H](CCCN=C(N)N)C(=O)NCC(=O)N[C@@H](CCCCN)C(=O)N[C@@H](C)C(=O)N[C@@H](CC(=O)O)C(=O)N[C@H](C(=O)N[C@@H](C)C(=O)N[C@@H](CC(C)C)C(N)=O)C(C)C` [IFWLFRGKADVAL], the MIC in test [20] is more than 167 µM; in test [21], not below 83.3 µM; in test [22] it was not below 83.3 µM; in [3], more than 167 µM; in test [23] it was more than 83.3 µM; in test [5], more than 167 µM. Also, the MIC in test [24] was not below 41.7 µM; in [25] it was not below 83.3 µM; in test [26], 14.7 µM (≈ 22.6 µg/mL); in test [27] it was 29.5 µM (≈ 45.2 µg/mL); in test [28] it was not below 41.7 µM; in test [29] it was not below 83.3 µM. Further, the MIC in [30] was more than 83.3 µM; in test [31], more than 167 µM.
Turning to `C[C@H](N)C(=O)N[C@@H](CC(=O)O)C(=O)N[C@@H](C)C(=O)N[C@@H](CC(=O)O)C(=O)N[C@@H](CC(=O)O)C(=O)N[C@@H](CC(=O)O)C(=O)N[C@@H](CC(=O)O)C(=O)N[C@@H](CC(=O)O)C(=O)N[C@@H](CCCCN)C(=O)O` [ADADDDDDK], the MIC is not below 230 µM in test [32]; not below 850 µM in test [33]; 1800 µM (≈ 1760 µg/mL) in test [23]; not below 1500 µM in [34]; 1800 µM (≈ 1760 µg/mL) in test [7]; not below 1500 µM in test [35]. The MIC in test [36] was not below 5110 µM; in test [37], not below 900 µM.
